Measurements reported in US10668043B2, “Potentiated antimicrobial agents” (priority 2014, dated 2020).

What was measured:
[1] = system: MRSA 10168; conditions: mouse, in vivo
Description: To Balb/c mice, is injected (Sc.) the antimicrobial product or the antimicrobial+booster mixture.
At different post-injection times, the mice are euthanised, and blood sampled, heparined and centrifuged to extract plasma thereof
Antibacterial effects are measured after 24 h incubation. The successive dilutions enable the antimicrobial effect to be determined and compared with the MIC. The efficient concentration/MIC ratio is thus determined.

[2] = system: Pseudomonas aeruginosa; assay: MIC measurement in agar solid medium (CLSI); format: cell-based
Text: (§1) Inhibitory minimum concentration measurement tests are made in a solid agar medium according to international standards in force (CLSI M7-A9 Jan 12 standards): dispersion of the compounds to be tested in a Mueller Hinton gelose. An adaptation relating to the hydrophobicity of compounds and compositions is however necessary to disperse them in the medium: dilution of the compounds in a solvent. The compounds and compositions incorporated in the agar medium can be diluted beforehand in one or more solvents (Tween® 80 diluted with water, tween® 80 diluted with propylene, DMSO diluted with water). The strains are deposited onto the agar surface with a steers apparatus. In the examples, different dissolution methods for products are tested in parallel to circumvent the problems of water/solvent distribution coefficient of the molecules (antimicrobial and potentiator) whereas the bacteria grow only in the aqueous phase. The technical requirement will not intervene in in vivo tests. The same dilution methods can be implemented in a liquid medium (microplates and tubes). The same methodology is implemented with fungi.
MIC measurement: the minimum inhibitory concentration measurement tests are made in an agar solid medium according to international standards in force (CLSI standards), according to the previously defined protocol. The compounds and compositions incorporated in the agar medium can be diluted beforehand in one or more solvents (Tween® 80 diluted with water—3.4 ml Tween for 9.6 ml water—, tween® 80 diluted with propylene 10-3.4 ml Tween for 9.6 ml propylene—, or DMSO diluted with water).
The booster contribution as compared with the MIC of the antibiotic alone is expressed in a (MIC ATB)/(MIC ATB+booster) ratio. Thereby, gains are defined:
MIC 50 gain=(MIC50 of the antibiotic alone)/(MIC50 (antibiotic+booster))
MIC 90 gain=(MIC90 of the antibiotic alone)/(MIC90 (antibiotic+booster))
The tested strains are isolated from various human samples (blood, urine, pulmonary aspirates, etc.). The strains investigated in the following examples are chosen from the strains of the following table: […]

[3] = system: Escherichia coli; assay: MIC measurement in agar solid medium (CLSI); format: cell-based
Text: as §1, with “fungi. MIC measurement: the minimum inhibitory concentration measurement tests are made in an agar solid medium according to international standards in force (CLSI standards), according to the previously defined protocol. […] The booster contribution as compared with the MIC of the antibiotic alone is expressed in a (MIC ATB)/(MIC ATB+booster) ratio. Thereby, gains are defined: […] The tested strains are isolated from various human samples (blood, urine, pulmonary aspirates, etc.). The strains investigated in the following examples are chosen from the strains of the following table: [table] […] The MICs are measured on different strains. Then, the MIC gain is calculated on the strains belonging to the same genus. The MIC gain expresses the following ratio: […]” for “fungi.”

[4] = system: Staphylococcus; assay: MIC measurement in agar solid medium (CLSI); format: cell-based
Text: as §1, with “fungi. MIC measurement: the minimum inhibitory concentration measurement tests are made in an agar solid medium according to international standards in force (CLSI standards), according to the previously defined protocol. […] The booster contribution as compared with the MIC of the antibiotic alone is expressed in a (MIC ATB)/(MIC ATB+booster) ratio. Thereby, gains are defined: […] The tested strains are isolated from various human samples (blood, urine, pulmonary aspirates, etc.). The strains investigated in the following examples are chosen from the strains of the following table: [table] […] The MICs are measured on different strains. Then, the MIC gain is calculated on the strains belonging to the same genus. The MIC gain expresses the following ratio: […]” for “fungi.”

[5] = system: E. coli; assay: Double dilution test; format: cell-based
Text: (§2) The double dilution test is a MIC measurement test made on successive dilutions of the 2 products of the composition. […] The summary table expresses for each strain and for each dilution of the booster the measured antibiotic MIC.
(§3) The code enabling the results to be interpreted is the following one: no sign “^+” if the MIC is equivalent with and without booster, a sign “^+” if the value is lower with booster.

[6] = system: Staphylococcus; assay: Double dilution test; format: cell-based; conditions: strain 8148
Text: as §2, §3

[7] = system: strain 08150; assay: Post antibiotic effect; format: cell-based
[8] = system: MRSA; assay: Sepsis model, in vivo test 2; set-up: species or system CD1 mice; conditions: CIN 32 mg/kg without antibiotic; subcutaneous; count at 24 h
Description: 200 μL of a bacterial solution (MRSA) adjusted to 5.108 UFC/ml is injected by the intravenous route (retro-orbital route) to CD1 mice. The treatment is initiated 1 h after the bacteria injection by the subcutaneous route.
At 24 h, the mice are euthanized and a bacterial count is made in the kidney.
Controls: untreated group, group receiving 32 mg/kg cineol without antibiotic (CIN), group receiving 8 mg/kg antibiotic without cineol (AMC8). • (*) p<0.05 vs control, AMC8 and CIN • (£) p<0.05 vs control and CIN • ($) p<0.05 vs control, AMC8, CIN, AMC+CIN 128, AMC+CIN 256

[9] = system: strains; assay: MIC of cineol alone, strains not named; format: cell-based; conditions: cineol used alone; strains of the etest example
[10] = system: microorganisms grown in planktonic and biofilm cultures; conditions: Hendry et al, J Antimicrob Chemother 2009; cited from earlier work

In the case of “amoxicillin/clavulanic acid [Augmentin®]”, the “Time spent beyond the MIC” value [1] is reported as under 4 h.
With `CC12CCC(CC1)C(C)(C)O2` [Cineol, cineol] the “MIC 50 of cineol alone” value ([2]; DMSO) was 1%, the “MIC 90 of cineol alone” value ([2]; DMSO) was 1% and the “MIC 50 of cineol alone” value ([2]; Tween/prop glyc) was over 1%. The “MIC 90 of cineol alone” value ([2]; Tween/prop glyc) was over 1%, the “MIC 50 of cineol alone” value ([2]; Tween/water) was over 1% and the “MIC 90 of cineol alone” value ([2]; Tween/water) was over 1%. The “MIC 50 of cineol alone” value ([2]; water/water) was over 1%, the “MIC 90 of cineol alone” value ([2]; water/water) was over 1% and the “MIC 50 of cineol alone” value ([3]; DMSO) was over 1%. For the same compound, the “MIC 90 of cineol alone” value ([3]; DMSO) was over 1%, the “MIC 50 of cineol alone” value ([3]; Tween/prop glyc) was over 1% and the “MIC 90 of cineol alone” value ([3]; Tween/prop glyc) was over 1%. The “MIC 50 of cineol alone” value ([3]; Tween/water) was over 1%, the “MIC 90 of cineol alone” value ([3]; Tween/water) was over 1% and the “MIC 50 of cineol alone” value ([3]; water/water) was over 1%. The “MIC 90 of cineol alone” value ([3]; water/water) was over 1%, the “MIC 50 of cineol alone” value ([4]; DMSO) was over 1% and the “MIC 90 of cineol alone” value ([4]; DMSO) was over 1%. The “MIC 50 of cineol alone” value ([4]; Tween/prop glyc) was over 1%, the “MIC 90 of cineol alone” value ([4]; Tween/prop glyc) was over 1% and the “MIC 50 of cineol alone” value ([4]; Tween/water) was over 1%. For the same compound, the “MIC 90 of cineol alone” value ([4]; Tween/water) was over 1%, the “MIC 50 of cineol alone” value ([4]; water/water) was over 1% and the “MIC 90 of cineol alone” value ([4]; water/water) was over 1%. It also gave an MIC of cineol alone ([5]; strain 8137) of over 2.5 µg/mL, an MIC of cineol alone ([5]; strain 8151) of over 2.5 µg/mL and an MIC of cineol alone ([5]; strain 8155) of over 2.5 µg/mL. It also gave an MIC of cineol alone ([5]; strain 8156) of over 2.5 µg/mL, an MIC of cineol alone ([5]; strain ATCC 25922) of over 2.5 µg/mL and an MIC of cineol alone [6] of over 2.5 µg/mL. It also gave a number of bacteria ([7]; time 0 h after 16 h contact, Cineol 4 mg/L (AC, where present, at its MIC)) of 2.17E+07, a number of bacteria ([7]; time 0 h after 16 h contact, Cineol 16 mg/L (AC, where present, at its MIC)) of 2.20E+07 and a number of bacteria ([7]; time 1 h after 16 h contact, Cineol 4 mg/L (AC, where present, at its MIC)) of 4.92E+07. The number of bacteria ([7]; time 1 h after 16 h contact, Cineol 16 mg/L (AC, where present, at its MIC)) was 3.88E+07, the number of bacteria ([7]; time 2 h after 16 h contact, Cineol 4 mg/L (AC, where present, at its MIC)) was 5.50E+07 and the number of bacteria ([7]; time 2 h after 16 h contact, Cineol 16 mg/L (AC, where present, at its MIC)) was 6.40E+07. The number of bacteria ([7]; time 3 h after 16 h contact, Cineol 4 mg/L (AC, where present, at its MIC)) was 3.90E+08, the number of bacteria ([7]; time 3 h after 16 h contact, Cineol 16 mg/L (AC, where present, at its MIC)) was 2.70E+08 and the number of bacteria ([7]; time 4 h after 16 h contact, Cineol 4 mg/L (AC, where present, at its MIC)) was 3.50E+08. It also gave a number of bacteria ([7]; time 4 h after 16 h contact, Cineol 16 mg/L (AC, where present, at its MIC)) of 4.20E+08, a number of bacteria ([7]; time 5 h after 16 h contact, Cineol 4 mg/L (AC, where present, at its MIC)) of 5.90E+08 and a number of bacteria ([7]; time 5 h after 16 h contact, Cineol 16 mg/L (AC, where present, at its MIC)) of 5.50E+08. The number of bacteria ([7]; time 6 h after 16 h contact, Cineol 4 mg/L (AC, where present, at its MIC)) was 6.00E+08, the number of bacteria ([7]; time 6 h after 16 h contact, Cineol 16 mg/L (AC, where present, at its MIC)) was 5.90E+08 and the “Mean ± SD log10 UFC/g kidney” value [8] was 6.35 ± 0.29 log10 UFC/g kidney. The MIC50 [9] was over 10000 µg/mL and the MIC of cineole [10] was 8000 to 64000 µg/mL.
